Results from patent publication US11591288B2, “Compositions and methods for treating atherosclerotic cardiovascular disease” (GAVISH-GALILEE BIO APPLICATIONS LTD., priority 2017, dated 2023).

Experiments:
J774A.1 macrophages = experiment: HDL-mediated cholesterol efflux from macrophage cells; assay type: cell-based, murine; settings: 16.5% without lyso-DGTS
Protocol: Cholesterol efflux Fluorometric Assay Kit (Cell-Based), Biovision was used to measure the effect of lyso-DGTS on HDL-cholesterol efflux.
J774.1 macrophage cells were grown in RPMI 1640 media containing 10% FBS in cell culture flask till ˜90% confluence (37° C. incubator containing 5% CO2). The cells were splitted under sterile conditions using basic cell culture techniques and plate to approximately 1×10^5 cells/well in a 96-well plate (white plate with clear bottom) using 100 μl media/well. After 2 h, the cells attached to the plates, washed with RPMI 1640 media (no serum added) and labeled with 50 μl labeling reagent and 50 μl equilibration buffer, supplied by the kit, for 16 h. 100 μl equilibration buffer alone were added to the background control for measuring background fluorescence. The cells were washed with media and treated for another 4-6 h with 100 μl of RPMI 1640 media containing HDL (25 μg protein) preincubated with lyso-DGTS at various concentrations (0, 10, 20, 50, and 100 μg/ml) for 4 h. To the negative control was added RPMI 1640 media alone.
The fluorescence of the supernatant was measured (excitation/emission=482/515 nm). The cells were solubilized adding 100 μl of Cell Lysis Buffer and shaking on a plate shaker for 30 min at room temperature, and its fluorescence was also measured.
Cholesterol efflux of the treatments was calculated by dividing the fluorescence intensity of the media by total fluorescence intensity of the cell lysate of the same treatment and media.
HDL removes cholesterol from cells, including macrophages. HDL particles were incubated with lyso-DGTS at different concentrations. The HDL ability to efflux cholesterol from J774A.1 macrophages was measured using flouromtric assay (cell-based cholesterol efflux flouromtric assay kit, supplied by Biovision) and expressed as % of cholesterol efflux. […] The cholesterol removal enhanced from 16.5% (without lyso-DGTS) to 22.5%, 31.5%, 36.5%, and 46.5% after incubation with lyso-DGTS at 10, 20, 50, and 100 μg/ml, respectively (FIG. 8).

rePON1 = rePON1 arylesterase activity (phenyl acetate assay) after incubation with lyso-DGTS; assay type: biochemical; settings: 0-100 μg/ml lyso-DGTS, 2 or 4 h, 37° C.
Protocol: To 200 μl of rePON1 solution (5 μg/ml) in Tris-HCl buffer pH=8.4 was added 1 μl of lyso-DGTS dissolved in dimethyl sulfoxide (DMSO) to a final concentration of 1, 5, 10, 50, and 100 μg/ml. 1 μl DMSO was added to the control rePON1 solution. The mixtures were incubated at 37° C. for 2, 4, 24 or 48 h.
10 μl from each solution were taken to a UV 96-well microplate wells containing 90 μl Tris-HCL buffer pH=8.4 with 1 mM CaCl2 (activity buffer). Then 100 μl phenyl acetate, 2 mM in the activity buffer was added (prepared from a stock of 100 mM phenyl acetate in DMSO). Phenyl acetate hydrolysis rate was measured at 270 nm, once in 25 seconds, for 15 minutes using SpectraMax M2 Reader. One unit of esterase activity was equal to the hydrolysis of 1 μmol of phenyl acetate/min. Lactonase and esterase unit activity were calculated by the following equation: Unit=slope (mOD/min)×5(per ml)×666.7(dilution)/700. Human Serum PON1 Lactonase Activity
The effect of lyso-DGTS on lactonase and arylesterase activities of rePON1 was examined. rePON1 (5 μg/ml in Tris buffer pH=8.4) was incubated with different concentrations of lyso-DGTS for 2, 4, 24, and 48 h at 37° C., and its lactonase and aryesterase activities were measured using dihydrocoumarin and phenyl acetate assays, respectively.

serum PON1 = biological target: T1, serum PON1 (Mus musculus, UniProt P52430); experiment: Serum PON1 lactonase activity of Balb/c mice fed with high fat diet; assay type: in vivo; settings: HFD mice, lyso-DGTS 1.43 mg/ml via s.c. osmotic mini-pump, 28 days; vs vehicle
T1 construct: from tissue; host or cells: serum of Balb/c mice
Protocol: (§1) Eight weeks old Balb/c mice where fed with normal rodent diet (the “non” group n=11) for 12 weeks or with high-fat diet (HFD) for 8 weeks. After 8 weeks, the HFD group was divided into two groups both treated via osmotic mini-pumps implanted subcutaneously: (1) vehicle group (the pumps contained 100 μl of DDW+2% Tween 80; n=9); (2) Lyso-DGTS group (the pumps contained 100 μl lyso-DGTS 1.4 mg/ml in DDW+2% Tween 80; n=1). The mice then continued with the same diet for another 4 weeks. The pumps injected 3.5 μl solution each day for 28 days until the end of the experiment. Blood was drawn and centrifuged at 2000 rpm for five minutes, and the serum was stored at −70° C. until the analyses. Clinical parameters were measured. Serum diluted by 20 with PBS and PON1 lactonase activity was measured using dihydrocumarine assay.
The effect of lyso-DGTS on lactonase PON1 activity was examined using Balb/c mice fed with HFD. […] At the end of the protocol, blood was withdrawn and clinical parameters and lactonase PON1 activity were measured. […] Lactonase PON1 activity of the mice serum was measured using dehydrocumarine assay.

[1] = Clinical parameters of the in-vivo experiment (HFD fed Balb/c mice); parameters: unit not given here; settings: lyso-DGTS via s.c. osmotic mini-pump, 28 days; for Glucose: p < 0.05 related to vehicle group
Protocol: as §1
The effect of lyso-DGTS on lactonase PON1 activity was examined using Balb/c mice fed with HFD. Three groups of Balb/c mice were used: 1) the “non” group […] mice which was fed with normal rodent diet for 12 weeks; 2) the “vehicle” group n=9 mice which was fed with HFD for 8 weeks and then continued with the same diet for another 4 weeks with the injection of DDW+2% Tween via osmotic mini-pumps implanted subcutaneously; and 3) the lyso-DGTS group n=1 mice which was fed similar to the vehicle group and injected with lyso-DGTS at 1.43 mg/ml in DDW+2% Tween 80 (FIG. 14). At the end of the protocol, blood was withdrawn and clinical parameters and lactonase PON1 activity were measured. […] Lactonase PON1 activity of the mice serum was measured using dehydrocumarine assay.

[2] = tested on: Human umbilical vein endothelial cells (HUVECs); experiment: HDL-induced endothelial NO release, DAN assay; assay type: cell-based; settings: HDL 50 μg/ml preincubated 3 h with 10, 20, 50 μg/ml; HUVECs 2 h
Protocol: HUVECs were stimulated for 2 h with HDL (50 μg/ml) preincubated with DMSO, lyso-DGTS and S1P at final concentrations of 10, 20, and 50 μg/ml for 3 h. Media were then collected and treated with nitrate reductase followed by analysis using the DAN assay. Data are expressed as NO concentration (μM) released by the cells. Each experiment was repeated separately at least three times. *p<0.05, ***p<0.0001 related to the control (HDL without lyso-DGTS or S1P). Statistics were analyzed using one-way annova Graphpad prism 5 software.
Human umbilical vein endothelial cells (HUVECs) were incubated for 2 hours with HDL preincubated with different concentration of lyso-DGTS or S1P for 3 hours, and NO production determined using 2,3-diaminonapthalene (DAN) assay.

T1 sequence (P52430 whole entry): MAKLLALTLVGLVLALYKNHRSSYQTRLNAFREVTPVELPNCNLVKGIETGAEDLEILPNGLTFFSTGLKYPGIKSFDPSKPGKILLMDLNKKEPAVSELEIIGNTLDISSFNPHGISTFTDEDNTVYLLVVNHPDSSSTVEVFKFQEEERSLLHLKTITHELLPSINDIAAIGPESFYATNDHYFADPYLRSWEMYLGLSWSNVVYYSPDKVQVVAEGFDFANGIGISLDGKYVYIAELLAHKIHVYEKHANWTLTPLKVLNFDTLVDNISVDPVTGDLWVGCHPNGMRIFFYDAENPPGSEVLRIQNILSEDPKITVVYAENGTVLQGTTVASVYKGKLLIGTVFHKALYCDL

Question: With `CC/C=C\C/C=C\C/C=C\C/C=C\C/C=C\CCCC(=O)OCC(O)COCCC(C(=O)[O-])[N+](C)(C)C` (stereo not drawn) [lyso-DGTS, lyso-diacylglyceryltrimethylhornmoserine] as the molecule, how does the HDL-mediated cholesterol efflux (J774A.1 macrophages; HDL incubated with 10 μg/ml lyso-DGTS) read?
Answer: 22.5%

Question: And the HDL-mediated cholesterol efflux (J774A.1 macrophages; HDL incubated with 20 μg/ml lyso-DGTS)?
Answer: 31.5%

Question: What about the HDL-mediated cholesterol efflux (J774A.1 macrophages; HDL incubated with 50 μg/ml lyso-DGTS) of the same molecule?
Answer: 36.5%

Question: What about the HDL-mediated cholesterol efflux (J774A.1 macrophages; HDL incubated with 100 μg/ml lyso-DGTS) of the same molecule?
Answer: 46.5%

Question: And the “effect on rePON1 arylesterase activity” value (rePON1)?
Answer: increases rePON1 lactonase and arylesterase activities in a dose and time dependent manner

Question: And the “increase of serum lactonase PON1 activity” value (serum PON1)?
Answer: ~2.3 units

Question: And the Cholesterol [1]?
Answer: 4.03 ± 0.40

Question: And the HDL [1]?
Answer: 4.37 ± 0.42

Question: And the Triglycerides [1]?
Answer: 0.84 ± 0.26

Question: What about the Glucose [1] of the same molecule?
Answer: 5.99±1.4

Question: What about the Glucose ([1]; listed as Lyso-DGTS) of the same molecule?
Answer: 5.99 ± 1.4

Question: What about the “effect on HDL ability to induce endothelial NO release” value [2] of the same molecule?
Answer: significantly increased the HDL ability to induce endothelial NO release at a dose dependent manner
